Assay results from patent US6521661B1, “Cyclic peroxides as novel antifungal agents” (Harbor Branch Oceanographic Institution, Inc., priority 2000, dated 2003).
Values after ≈ are worked out from the molar mass of the structure shown.

How the values were obtained:
[1] = tested on: cardiac sarcoplasmic reticulum; conditions: cited from earlier work
Candida albicans = assay: Antifungal microtiter broth assay; format: cell-based; conditions: 24 hours, 37° C., RPMI medium, scored visually
Method: Preparation of Stocks Cultures of Candida albicans. Freeze-dried C. albicans yeast stocks (ATCC 90028) were each resuspended in 1 mL sterile distilled, de-ionized water. Slants were made with five mL of MPG agar (2% (w/v) malt extract, 2% (w/v) glucose, 0.1% (w/v) bacto-peptone, 1.5% (w/v) agar) in 16×125 mm disposable glass culture tubes, inoculated with approximately […] of the above cell suspension, incubated at 25° C. for 7 days and then frozen at −80° C. To prepare glycerol stocks, a slant was thawed and the yeast cells were resuspended in 5 mL sterile distilled, de-ionized water. This 5 mL cell suspension was used to inoculate 50 mL of Sabouraud Dextrose Broth (3% (w/v) [Gibco]) in a 250 mL Ehrlenmeyer flask and was incubated 18-24 hours at 37° C., 180 rpm. Fifty milliliters of Sabouraud Dextrose Broth in a 250 mL Ehrlenmeyer flask were inoculated with 1×10^7 cells per mL of the previous culture and grown under the same conditions. After 18-24 hours, sufficient glycerol was added to this culture to make a 10% (v/v) solution (final concentration). This solution was aliquoted in 1 mL portions, frozen on dry ice, and stored at −50° C. A thawed glycerol stock was used to inoculate 50 mL Sabouraud's Dextrose Broth in a 250 mL Ehrlenmeyer flask and grown for 18-24 hours, at 37° C., 180 rpm. This culture was used to inoculate 96-well microtiter plates [Nunc] at 2×10^3 cells per 200 μL per well in liquid RPMI medium (RPMI-1640 [Gibco], 0.165 M MOPS, pH 7.0).
(§1) Each well of a 96-well microtiter plate contained 200 μL of inoculum of C. albicans or A. fumigatus and 0.1 to 125 μg/mL of marine extract in DMSO. Controls for each assay were 0.025 to 16 μg/mL of amphotericin B, and 2 μL of DMSO. Culture plates were incubated for 24 or 48 hours (for C. albicans and A. fumigatus respectively) at 37° C., 120 rpm and scored visually using a light microscope. […] Percent inhibition was estimated. The Minimum Inhibitory Concentration was determined. Samples were considered active if they inhibited 50% or more growth.

Aspergillus fumigatus = assay: Antifungal microtiter broth assay; format: cell-based; conditions: 48 hours, 37° C., RPMI medium, scored visually
Method: Preparation of Stock Cultures of Aspergillus fumigatus. Freeze-dried A. fumigatus stocks (ATCC 16424) were resuspended in 1 mL sterile distilled, de-ionized water. Slants were made with five mL of MPG agar (2% (w/v) malt extract, 2% (w/v) glucose, 0.1% (w/v) bacto-peptone, 1.5% (w/v) agar) in 16×125 mm disposable glass culture tubes, inoculated with approximately 50 μL of the above cell suspension, incubated at 25° C. for 7 days and then frozen at −80° C. To prepare glycerol stocks, a slant was thawed and conidia were resuspended in 5 mL sterile distilled, de-ionized water. Two hundred mL of MPG agar (2% (w/v) malt extract, 2% (w/v) glucose, 0.1% (w/v) bacto-peptone, 1.5% (w/v) agar) in a 1000 mL Ehrlenmeyer flask were inoculated with this 5 mL cell suspension, incubated 5-7 days at 37° C., and then frozen at −20° C. This flask was thawed and conidia were resuspended in 20 mL of sterile distilled, de-ionized water. Sufficient glycerol was added to this 20 mL suspension to make a 10% (v/v) solution (final concentration). This solution was aliquoted in 1 mL portions, frozen on dry ice, and stored at −50° C. A thawed glycerol stock was used to inoculate 96-well microtiter plates at 2×10^4 conidia per 200 μL per well in liquid RPMI medium (RPMI-1640 [Gibco], 0.165 M MOPS, pH 7.0).
as §1

cdc25a = target: T1, cdc25a (Homo sapiens, UniProt P30304); conditions: cited from earlier work
T1 sequence (P30304 1-524): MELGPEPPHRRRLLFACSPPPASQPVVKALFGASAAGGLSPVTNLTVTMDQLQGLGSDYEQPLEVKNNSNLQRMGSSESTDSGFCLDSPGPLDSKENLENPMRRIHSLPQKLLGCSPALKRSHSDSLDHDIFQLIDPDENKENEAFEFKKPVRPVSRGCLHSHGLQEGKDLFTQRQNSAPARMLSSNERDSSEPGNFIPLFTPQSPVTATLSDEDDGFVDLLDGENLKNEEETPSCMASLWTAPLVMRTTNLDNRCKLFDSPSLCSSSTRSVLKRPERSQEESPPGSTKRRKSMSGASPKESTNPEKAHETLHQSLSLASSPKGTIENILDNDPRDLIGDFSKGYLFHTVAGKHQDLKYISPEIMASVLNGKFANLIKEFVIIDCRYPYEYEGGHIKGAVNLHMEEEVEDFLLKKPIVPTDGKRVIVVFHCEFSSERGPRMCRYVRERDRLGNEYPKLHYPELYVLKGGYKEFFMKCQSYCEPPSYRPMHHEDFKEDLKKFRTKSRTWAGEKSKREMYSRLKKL

P388 murine leukemia = conditions: cited from earlier work
S. cerevisiae = conditions: at 100 mg/disk; cited from earlier work
P. atrovenetum = conditions: at 100 mg/disk; cited from earlier work
[2] = tested on: murine leukemia (P388) cells; conditions: cited from earlier work

Compound	IC50 (Candida albicans) [µg/mL]	IC90 (Candida albicans) [µg/mL]	IC50 (Aspergillus fumigatus) [µg/mL]	IC90 (Aspergillus fumigatus) [µg/mL]	other results
CC/C=C/C(CC)CCC[C@@]1(CC)C[C@H](CC)[C@H](CC(=O)OC)OO1 (stereo partly shown) [Plakortide F]					Ca2+ uptake by the cardiac sarcoplasmic reticulum [1]: significantly enhanced
CC/C=C/C(CC)C/C=C/[C@@]1(CC)C[C@H](CC)[C@@H](CC(=O)O)OO1 (stereo partly shown) [Peroxyacid 6]	2 (≈ 5.91 µM)	3.9 (≈ 11.5 µM)	5.6 (≈ 16.5 µM)	5.6 (≈ 16.5 µM)	
C[C@]1(CCCCCCCCCCc2ccccc2)C[C@](C)(CC(=O)O)OO1 [Peroxyacid 5, Epiplakinic Acid h]	0.25 (≈ 0.664 µM)	0.25 (≈ 0.664 µM)	0.5 (≈ 1.33 µM)	0.5 (≈ 1.33 µM)	Inhibition of the enzyme cdc25a (cdc25a): inhibitor
CC/C=C/C(CC)CC(C)CC1(CC)C[C@H](CC)[C@H](CC(=O)O)OO1 (stereo partly shown)					IC50 against P388 murine leukemia (P388 murine leukemia): 0.5 mg/mL (≈ 1410 µM)
CC/C=C/C=C/C=C/CCCCCCCC[C@]1(C)C[C@](C)(CC(=O)O)OO1 [Peroxyacid 1]	25 (≈ 66 µM)	25 (≈ 66 µM)	25 (≈ 66 µM)	25 (≈ 66 µM)	
CC(CCCCCC/C=C/C=C/c1ccccc1)C[C@]1(C)C[C@@](C)(CC(=O)O)OO1 (stereo partly shown) [Peroxyacid 3]	31.2 (≈ 75.3 µM)	62.5 (≈ 151 µM)	62.5 (≈ 151 µM)	62.5 (≈ 151 µM)	
CC(/C=C/c1ccccc1)C/C=C/C(C)C[C@]1(C)C[C@H](C)[C@@H](CC(=O)O)OO1 (stereo partly shown) [Plakinic acid B]					Antifungal activity vs. S. cerevisiae (zone) (S. cerevisiae): 20 mm; Antifungal activity vs. P. atrovenetum (zone) (P. atrovenetum): 18 mm
Plakortide G					Ca2+ uptake by the cardiac sarcoplasmic reticulum [1]: significantly enhanced
CC/C=C/C=C/C=C/CCCCCCCC[C@]1(C)C[C@@](C)(CC(=O)O)OO1 [Peroxyacid 2]	25 (≈ 66 µM)	25 (≈ 66 µM)	25 (≈ 66 µM)	25 (≈ 66 µM)	
CC(/C=C/c1ccccc1)C/C=C/C(C)CC1(C)CC(C)(CC(=O)O)OO1 (stereo not shown) [Plakinic acid A]					Antifungal activity vs. S. cerevisiae (zone) (S. cerevisiae): 24 mm; Antifungal activity vs. P. atrovenetum (zone) (P. atrovenetum): 25 mm
COC(=O)C[C@@]1(C)C[C@](C)(CC(C)CCCCCCc2ccccc2)OO1 (stereo partly shown) [Epiplakinic acid E methyl ester]					Cytotoxicity against P388 cells [2]: Cytotoxicity
Plakortide H					Ca2+ uptake by the cardiac sarcoplasmic reticulum [1]: significantly enhanced
CC(CCCCCC/C=C/C=C/c1ccccc1)C[C@]1(C)C[C@](C)(CC(=O)O)OO1 (stereo partly shown) [Peroxyacid 4]	31.2 (≈ 75.3 µM)	31.2 (≈ 75.3 µM)	31.2 (≈ 75.3 µM)	31.2 (≈ 75.3 µM)	
